# Assay results: patent US20130190278A1, “Compounds for the Treatment/Prevention of Ocular Inflammatory Diseases” (Laboratoires Fournier SA, priority 2010, published 2013)
# System: dry eye induced by scopolamine and extractor hood
# Assay: Dry eye model (scopolamine + desiccation), tear production by Phenol Red test (PRTT)
# Type: in vivo, mice
# Conditions: instillations of 0.1% twice a day
# Description: Dry eye is induced in mice by the combination of scopolamine, which blocks the muscarinic cholinergic receptors of lacrimal glands, and by placing the mice in an extractor hood that reduces humidity and increases air flow. The production and volume of aqueous tears, tear clearance, and the corneal barrier function are evaluated before treatment, and then twice a week after treatment. The results are compared between groups of untreated control mice, and groups of mice placed in the extractor hood, treated with the anticholinergic agent scopolamine, treated or not with tresperimus.
# Male 129SV/CD-1 mice were used in this study and received three sub-cutaneous injections of 200 μl of scopolamine at 2.5 mg/mL in saline for 21 days. The mice were placed in an extractor hood (humidity <50%) during the whole experiment.
# Tear production (PRTT) was measured with cotton threads impregnated with Phenol Red (Zone-quick; Menicon, Japan) applied to the ocular surface in the lateral canthus for 60 seconds. Wetting of the thread was measured in millimeters, using the scale on the cotton thread.
smiles,measurement,value
C[C@@H]1C[C@H]2[C@@H]3CCC4=CC(=O)C=C[C@]4(C)[C@@]3(F)[C@@H](O)C[C@]2(C)[C@@]1(O)C(=O)CO [dexamethasone],Tear volume (Phenol Red test),no significant effect
